Test results: US20040086880A1, “Method of producing nucleic acid molecules with reduced secondary structure” (priority 1999, published 2004)

Experiments:
Assay type in all cases: biochemical
Bst DNA polymerase = molecular target: T1, Bst DNA polymerase (Geobacillus stearothermophilus, UniProt P52026); assay: Single nucleotide extension of 6-mer primers at varying dNTP concentration; settings: for extension efficiency of 6-mer primer compared with natural dNTP: dNTP 0.5 microM to 130 microM, 45° C., 8 hours
T1 construct: purchased New England Biolabs
T1 sequence (P52026 290-876 limits assumed): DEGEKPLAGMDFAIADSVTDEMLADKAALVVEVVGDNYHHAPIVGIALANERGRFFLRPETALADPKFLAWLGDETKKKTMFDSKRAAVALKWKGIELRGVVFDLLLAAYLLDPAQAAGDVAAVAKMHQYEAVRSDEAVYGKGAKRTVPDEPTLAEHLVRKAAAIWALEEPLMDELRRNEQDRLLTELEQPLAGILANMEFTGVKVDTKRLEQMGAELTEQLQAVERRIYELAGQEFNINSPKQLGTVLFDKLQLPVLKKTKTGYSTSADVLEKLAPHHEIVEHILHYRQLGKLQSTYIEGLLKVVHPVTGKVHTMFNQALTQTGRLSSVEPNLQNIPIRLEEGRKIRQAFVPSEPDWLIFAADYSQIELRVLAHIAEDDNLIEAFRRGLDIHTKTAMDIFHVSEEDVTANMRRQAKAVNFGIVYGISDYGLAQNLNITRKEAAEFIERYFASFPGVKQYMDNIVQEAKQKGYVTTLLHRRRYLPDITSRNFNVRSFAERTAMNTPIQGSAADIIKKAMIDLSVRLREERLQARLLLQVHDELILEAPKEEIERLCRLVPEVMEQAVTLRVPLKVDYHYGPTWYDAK
Description: To further assess the incorporation efficiency of the modified nucleotides by Bst DNA polymerase, the efficiency for a single nucleotide extension reaction was determined using two 6-mer primers in the presence of varying concentrations of dATP, 2-amino-2′-deoxyadenosine-5′-triphosphate, dTTP or 2-thiothymidine-5′-triphosphate (illustrated as 2-thioTTP) (FIGS. 3A and 4A). For this study, the reaction mixtures contained: 20 mM Tris-Cl (pH 8.8 @ 25° C.), 10 mM KCl, 10 mM (NH4)2SO4, 2 mM MgSO4, 0.1% Triton-X100, 500 nanoM 6-mer primer, 20 nanoM 30-mer DNA template, 0.8 units/microL (˜70 nanoM) Bst DNA polymerase and a dNTP concentration ranging from 0.5 microM to 130 microM. The reaction mixtures were incubated at 45° C. for 8 hours and separated by electrophoresis on 20% denaturing (7M urea) polyacrylamide gels.

[1] = system: Bst DNA polymerase, Taq DNA polymerase, MMLV-RT; assay: Polymerase extension of 32P-labeled 12-mer primer on synthetic 30-mer template to full-length product; settings: all three polymerases
Description: The ability of the Bacillus sterothermophilus (Bst) DNA polymerase (New England Biolabs), the Thermus aquaticus (Taq) DNA polymerase (Amersham) and the Moloney Murine Leukemia Virus reverse transcriptase (MMLV-RT) (Amersham) to incorporate the 2-amino-2′-deoxyadenosine-5′-triphosphate and 2-thiothymidine-5′-triphosphate into polynucleotides was tested using a synthetic 30-mer template and ^32P-labeled 12-mer primer (S.A. 130 Ci/mmol). (FIG. 2A). Extension reactions for each polymerase were performed in 0.65 ml pre-siliconized microfuge tubes containing the following components: (Bst) 20 mM Tris-Cl (pH 8.8 @ 25° C.), 10 mM KCl, 10 mM (NH4)2SO4, 2 mM MgSO4, 0.1% Triton-X100, 0.5 microM primer/template, 250 microM each dNTP and 0.15 units/microL Bst DNA polymerase; (Taq) 26 mM Tris-Cl (pH 9.5 @25° C.), 6.5 mM MgCl2, 0.5 microM primer/template, 250 microM each dNTP and 0.15 units/microL Taq DNA polymerase; (MMLV-RT) 50 mM Tris-Cl (pH 8.3 @ 25° C.) 75 mM KCl, 3 mM MgCl2, […], 0.5 microM primer/template, 250 microM each dNTP and 0.5 units/microL MMLV-RT. The reactions were incubated for 15 minutes at 65° C. for the Bst and Taq reactions and 42° C. for the MMLV-RT reaction. The reaction mixtures were separated by electrophoresis on 10% denaturing (7M urea) polyacrylamide gels and visualized by phosphorimaging methods.

[2] = molecular target: T2, SuperScript II MMLV reverse transcriptase (Moloney murine leukemia virus, UniProt P03355, D1183G/D1242N/E1221Q); assay: Synthesis of fluorescently labeled cUNA from pBp-1 T7-RNA template with dCTP-Cy5; settings: substituted for dATP and TTP; one hour
T2 construct: 200 units of SuperScript II MMLV reverse transcriptase (InVitrogen); purchased InVitrogen
Description: The ability to generate fluorescently labeled cUNAs was tested using the pBp-1 T7-RNA template and dCTP-Cy5 fluorescently labeled nucleotide analogue (Perkin-Elmer/NEN). The reverse transcriptase reactions (10.0 uL) were performed in 0.65 mL pre-siliconized microfuge tubes containing the following components: 50 mM Tris-Cl (pH 8.3), 75 mM KCl, 3.0 mM MgCl2, 4.5 mM DTT, 500 uM dGTP (or dITP), 500 uM dATP (or 2-amino-2′-deoxyadenosine-5′-triphosphate), 500 uM TTP (or 2-thiothymidine-5′-triphosphate), the indicated amounts of dCTP and dCTP-Cy5, 40 nM pBp-1 RNA template, 1.0 uM T16N2 primer, 1.0 unit of RNase Out (In Vitrogen), and 100 units of SuperScript II MMLV reverse transcriptase (In Vitrogen). The buffer components, RNA template, and primer were annealed by heating to 75° C. for 4 minutes and quickly cooled to room temperature. The dNTPs and RNase inhibitor were then added and the reactions were initiated by the addition of the reverse transcriptase and incubated at 42° C. At one and three hours, 5.0 uL aliquots were removed, mixed with 0.07 ug of RNase A, and incubated at room temperature for 30 minutes. The ribonucleased reaction mixtures were quenched with EDTA and 8 M urea and separated by electrophoresis on 5% polyacrylamide gels (19:1) containing 1×TBE and 9M urea. The fluorescently-labeled products were visualized using a phosphorimager.

Row | Compound | EC50 (Bst DNA polymerase) [µM] | extension efficiency of 6-mer primer compared with natural dNTP (Bst DNA polymerase) | full-length product when both analogues are substituted for A and T in a single reaction mixture [1] | full-length fluorescently-labeled product [2]
1 | Cc1cn([C@H]2C[C@H](O)[C@@H](COP(=O)(O)OP(=O)(O)OP(=O)(O)O)O2)c(=S)[nH]c1=O [2-thiothymidine-5′-triphosphate] | ~6 | very similar | full-length product was generated | full-length fluorescently-labeled product is generated
2 | Nc1nc(N)c2ncn([C@H]3C[C@H](O)[C@@H](COP(=O)(O)OP(=O)(O)OP(=O)(O)O)O3)c2n1 [2-amino-2′-deoxyadenosine-5′-triphosphate] | – | approximately equal efficiencies | full-length product was generated | full-length fluorescently-labeled product is generated
